According to patent US20260174716A1, “CRYSTAL FORM OF ALKYL CARBOXYLIC ACID COMPOUND AND USE THEREOF” (CONSUN PHARMACEUTICAL (INNER MONGOLIA) CO. LTD, priority 2022, published 2026):

Experiments:
[1] = In vitro hepatocyte metabolic stability, mouse; assay type: in vitro ADME; settings: hepatocytes (cryopreserved, suspension), 0.5×10^6 cells/mL
Procedure: (§1) • 1. Experimental objective: The aim of the study was to assess the stability of the compounds in hepatocytes of different species. • 2. Experimental steps:
(§2) A variety of 96-well precipitation plates were prepared and labeled as T0, T15, T30, T60, T90, T0-MC, T90-MC, and blank matrix, respectively. Revival medium and incubation medium were taken in advance and pre-warmed in a 37° C. water bath. Hepatocytes of different species, stored in a liquid nitrogen tank, were taken and immediately immersed in a 37° C. water bath for approximately 90 seconds. Once partially thawed, cells were transferred to centrifuge tubes containing 40 mL of revival medium, and gently inverted to resuspend the cells in the revival medium. At room temperature, cells were centrifuged at 100×g for 5 minutes. The supernatant was discarded, and the hepatocytes were resuspended in an appropriate volume of incubation medium. Viability was calculated using trypan blue staining. 198 μL of hepatocyte suspension (0.51×10^6 cells/mL) was added to pre-warmed incubation plates. For the control group, 198 μL of hepatocyte-free incubation medium was added to T0-MC and […] plates. All plates were pre-incubated for 10 minutes in a 37° C. incubator. […] All samples were mixed well and analyzed using LC/MS/MS methods.

[2] = In vitro hepatocyte metabolic stability, rat; assay type: in vitro ADME; settings: hepatocytes (cryopreserved, suspension), 0.5×10^6 cells/mL
Procedure: as §1, §2

[3] = In vitro hepatocyte metabolic stability, human; assay type: in vitro ADME; settings: hepatocytes (cryopreserved, suspension), 0.5×10^6 cells/mL
Procedure: as §1, §2

[4] = biological target: T1, sGC (Homo sapiens, UniProt Q02153); assay: cGMP expression test based on LNCap cells (HTRF, with ODQ); assay type: cell-based
T1 construct: Minimum effective concentration required to stimulate cGMP production in LNCap cells; endogenous in cells; host or cells: LNCaP cells (no transfection described)
T1 sequence (Q02153 1-619): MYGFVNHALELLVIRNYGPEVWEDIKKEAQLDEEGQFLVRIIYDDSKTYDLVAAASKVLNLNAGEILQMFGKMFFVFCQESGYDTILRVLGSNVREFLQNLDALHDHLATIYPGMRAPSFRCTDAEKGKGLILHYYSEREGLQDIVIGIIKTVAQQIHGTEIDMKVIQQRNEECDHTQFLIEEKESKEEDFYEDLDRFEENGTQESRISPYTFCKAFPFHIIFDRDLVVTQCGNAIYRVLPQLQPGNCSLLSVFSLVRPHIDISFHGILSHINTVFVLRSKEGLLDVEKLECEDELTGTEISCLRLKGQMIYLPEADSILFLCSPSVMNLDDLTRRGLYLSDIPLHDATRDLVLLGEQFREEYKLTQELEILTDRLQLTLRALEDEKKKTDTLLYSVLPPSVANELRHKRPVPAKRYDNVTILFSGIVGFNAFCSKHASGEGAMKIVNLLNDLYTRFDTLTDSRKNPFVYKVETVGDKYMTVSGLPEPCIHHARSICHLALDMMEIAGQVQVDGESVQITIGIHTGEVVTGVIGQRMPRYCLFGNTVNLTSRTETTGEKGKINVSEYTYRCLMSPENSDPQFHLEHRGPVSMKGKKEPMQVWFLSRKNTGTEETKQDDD
T1 sequence (Q02108 1-690 partner): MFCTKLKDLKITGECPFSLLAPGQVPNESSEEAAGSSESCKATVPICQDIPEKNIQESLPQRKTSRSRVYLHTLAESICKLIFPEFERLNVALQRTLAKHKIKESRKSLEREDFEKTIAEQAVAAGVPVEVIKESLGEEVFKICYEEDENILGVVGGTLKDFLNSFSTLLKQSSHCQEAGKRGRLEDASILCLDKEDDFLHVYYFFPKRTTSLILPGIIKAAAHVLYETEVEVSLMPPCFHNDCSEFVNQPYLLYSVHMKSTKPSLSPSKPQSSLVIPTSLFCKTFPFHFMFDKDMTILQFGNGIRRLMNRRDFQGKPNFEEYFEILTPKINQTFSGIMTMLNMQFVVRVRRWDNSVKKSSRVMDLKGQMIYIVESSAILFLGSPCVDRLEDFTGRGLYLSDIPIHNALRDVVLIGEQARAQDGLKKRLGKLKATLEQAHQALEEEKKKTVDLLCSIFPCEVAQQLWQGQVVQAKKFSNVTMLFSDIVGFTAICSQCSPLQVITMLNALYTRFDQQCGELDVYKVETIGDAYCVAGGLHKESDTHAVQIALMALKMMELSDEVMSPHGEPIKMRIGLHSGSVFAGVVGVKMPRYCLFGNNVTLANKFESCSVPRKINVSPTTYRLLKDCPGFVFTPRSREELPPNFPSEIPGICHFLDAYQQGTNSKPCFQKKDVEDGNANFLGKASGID
Procedure: I. CGMP Expression Test Based on InCap Cells
10 g of BSA was dissolved in 100 mL of double-distilled water (ddH2O) to obtain 10% BSA.
1 mg of ODQ powder was weighed and dissolved in 534 μL of DMSO to prepare 10 mM ODQ solution. The solution was aliquoted and stored in a −20° C. refrigerator.
• a) 50 μL of cGMP-D2 (D2-labeled cyclic guanosine monophosphate) was added to 1 mL of lysis buffer and mixed thoroughly. • b) 50 μL of anti-cGMP cryptate (Eu^3+ cryptate-labeled anti-cyclic guanosine monophosphate antibody) was added to 1 mL of lysis buffer and mixed thoroughly.
• (1) The compound was diluted to a concentration of 10 mM using DMSO. • (2) A serial dilution of the compound was performed, resulting in 10 different concentration levels of each compound. […]
• (1) cGMP-D2 was transferred to a 384-well plate at 5 μL per well. […] Centrifugation was performed at 1500 rpm for 1 minute. • (2) Incubation was carried out at room temperature for 1 hour. • (3) The plates were read using envision at 665/615 wavelengths.
• (1) cGMP standard curve: A standard curve was generated using GraphPad Prism, based on the ratio of cGMP concentration to the 665/615 wavelength values. • (2) Conversion of HTRF (homogeneous time-resolved fluorescence) ratio (665/615) to cGMP concentration: In GraphPad Prism, the HTRF ratio (665/615) was copied to the ratio column of the cGMP standard curve. […]

[5] = Solid stability test (XRPD detection of crystal form); assay type: physicochemical
Excerpt: For samples placed under high temperature and high humidity conditions, the vial was sealed with aluminum foil punched with small holes to ensure that the samples were in full contact with the ambient air; for samples placed under strong light conditions, the vial was sealed with a threaded cap. The samples placed under different conditions were sampled and detected (XRPD) on day 5, day 10, and month 1, and the results were compared with the initial results on day 0.

COC12CC([C@H](CC(=O)O)c3ccc(Cl)c(NC(=O)[C@H](c4ccc(Cl)cc4)[C@@H](C)C(F)(F)F)c3)(C1)C2 [Compound of formula (I)]
half-life at 1 μM [1]: 1.42 h | CLint scaled at 1 μM ([1]; read-out: CLint (liver)): 193 mL/min/kg | half-life at 1 μM [2]: 1.3 h | CLint scaled at 1 μM ([2]; read-out: CLint (liver)): 82.9 mL/min/kg | half-life at 1 μM [3]: 2.58 h | CLint scaled at 1 μM ([3]; read-out: CLint (liver)): 24.9 mL/min/kg

COC12CC([C@H](CC(=O)O)c3ccc(Cl)c(NC(=O)[C@H](c4ccc(Cl)cc4)[C@@H](C)C(F)(F)F)c3)(C1)C2
EC50 ([4]; cGMP production in LNCap cells): 21.2 nM | MEC ([4]; minimum effective concentration to stimulate cGMP production in LNCap cells (greater than three times the baseline value)): 6.93 nM | Crystal form ([5]; 40° C./75% RH (open), Day 5): Crystal form A | Crystal form ([5]; 40° C./75% RH (open), Day 10): Crystal form A | Crystal form ([5]; 40° C./75% RH (open), Month 1): Crystal form A | Crystal form ([5]; 60° C./75% RH (open), Day 5): Crystal form A | Crystal form ([5]; 60° C./75% RH (open), Day 10): Crystal form A | Crystal form ([5]; 60° C./75% RH (open), Month 1): Crystal form A | Crystal form ([5]; Day 0 (initial)): Crystal form A | Crystal form ([5]; High humidity (25° C./relative humidity: 92.5%, open), Day 5): Crystal form A | Crystal form ([5]; High humidity (25° C./relative humidity: 92.5%, open), Day 10): Crystal form A | Crystal form ([5]; High humidity (25° C./relative humidity: 92.5%, open), Month 1): Crystal form A | Crystal form ([5]; High temperature (60° C., open), Day 5): Crystal form A | Crystal form ([5]; High temperature (60° C., open), Day 10): Crystal form A | Crystal form ([5]; High temperature (60° C., open), Month 1): Crystal form A | Crystal form ([5]; Strong light (5000 lx, sealed), Day 5): Crystal form A | Crystal form ([5]; Strong light (5000 lx, sealed), Day 10): Crystal form A | Crystal form ([5]; Strong light (5000 lx, sealed), Month 1): Crystal form A
